In ChEMBL document CHEMBL3046635, “Synthesis and Herbicidal Activity of New Pyrazole-4-carboxamide Derivatives” (J Pestic Sci, 2004):
Active and inactive are the calls of the source.

How the values were obtained:
Eleocharis acicularis [1] = experiment: Pre-emergence herbicidal activity against Eleocharis acicularis at 100 g a.i/ha measured after 14 days; format: functional, organism-based
Oryza sativa [2] = experiment: Phytotoxicity against Oryza sativa cv. Koshihikari (rice) at 100 g a.i/ha measured after 14 days; format: organism-based; settings: in vivo, 336 h
[3] = system: Schoenoplectiella juncoides; experiment: Pre-emergence herbicidal activity against Schoenoplectiella juncoides at 100 g a.i/ha measured after 14 days; format: functional, organism-based
Pontederia vaginalis [4] = experiment: Pre-emergence herbicidal activity against Monochoria vaginalis at 100 g a.i/ha measured after 14 days; format: functional, organism-based
Ammannia multiflora [5] = experiment: Pre-emergence herbicidal activity against Ammannia multiflora at 100 g a.i/ha measured after 14 days; format: functional, organism-based
Rotala indica [6] = experiment: Pre-emergence herbicidal activity against Rotala indica at 100 g a.i/ha measured after 14 days; format: functional, organism-based
Elatine triandra [7] = experiment: Pre-emergence herbicidal activity against Elatine triandra at 100 g a.i/ha measured after 14 days; format: functional, organism-based
Lindernia procumbens [8] = experiment: Pre-emergence herbicidal activity against Lindernia procumbens at 100 g a.i/ha measured after 14 days; format: functional, organism-based
Cyperus difformis [9] = experiment: Pre-emergence herbicidal activity against Cyperus difformis at 100 g a.i/ha measured after 14 days; format: functional, organism-based
Echinochloa oryzicola [10] = experiment: Pre-emergence herbicidal activity against Echinochloa oryzicola at 100 g a.i/ha measured after 14 days; format: functional, organism-based
Oryza sativa [11] = experiment: Phytotoxicity against Oryza sativa cv. Koshihikari (rice) at 500 g a.i/ha measured after 14 days; format: organism-based; settings: in vivo, 336 h
Eleocharis acicularis [12] = experiment: Pre-emergence herbicidal activity against Eleocharis acicularis at 500 g a.i/ha measured after 14 days; format: functional, organism-based
Pontederia vaginalis [13] = experiment: Pre-emergence herbicidal activity against Monochoria vaginalis at 500 g a.i/ha measured after 14 days; format: functional, organism-based
[14] = system: Schoenoplectiella juncoides; experiment: Pre-emergence herbicidal activity against Schoenoplectiella juncoides at 500 g a.i/ha measured after 14 days; format: functional, organism-based
Ammannia multiflora [15] = experiment: Pre-emergence herbicidal activity against Ammannia multiflora at 500 g a.i/ha measured after 14 days; format: functional, organism-based
Elatine triandra [16] = experiment: Pre-emergence herbicidal activity against Elatine triandra at 500 g a.i/ha measured after 14 days; format: functional, organism-based
Rotala indica [17] = experiment: Pre-emergence herbicidal activity against Rotala indica at 500 g a.i/ha measured after 14 days; format: functional, organism-based
Lindernia procumbens [18] = experiment: Pre-emergence herbicidal activity against Lindernia procumbens at 500 g a.i/ha measured after 14 days; format: functional, organism-based
Echinochloa oryzicola [19] = experiment: Pre-emergence herbicidal activity against Echinochloa oryzicola at 500 g a.i/ha measured after 14 days; format: functional, organism-based
Cyperus difformis [20] = experiment: Pre-emergence herbicidal activity against Cyperus difformis at 500 g a.i/ha measured after 14 days; format: functional, organism-based
Eleocharis acicularis [21] = experiment: Post-emergence herbicidal activity against Eleocharis acicularis assessed as bleaching of stem/leaf parts; format: functional, organism-based; also: test concentration or dose not given here
Eleocharis acicularis [22] = experiment: Pre-emergence herbicidal activity against Eleocharis acicularis assessed as bleaching of stem/leaf parts; format: functional, organism-based
Ammannia multiflora [23] = experiment: Pre-emergence herbicidal activity against Ammannia multiflora assessed as bleaching of stem/leaf parts; format: functional, organism-based
Rotala indica [24] = experiment: Pre-emergence herbicidal activity against Rotala indica assessed as bleaching of stem/leaf parts; format: functional, organism-based
Elatine triandra [25] = experiment: Pre-emergence herbicidal activity against Elatine triandra assessed as bleaching of stem/leaf parts; format: functional, organism-based
Lindernia procumbens [26] = experiment: Pre-emergence herbicidal activity against Lindernia procumbens assessed as bleaching of stem/leaf parts; format: functional, organism-based
[27] = system: Schoenoplectiella juncoides; experiment: Pre-emergence herbicidal activity against Schoenoplectiella juncoides assessed as bleaching of stem/leaf parts; format: functional, organism-based
Pontederia vaginalis [28] = experiment: Pre-emergence herbicidal activity against Monochoria vaginalis assessed as bleaching of stem/leaf parts; format: functional, organism-based
Cyperus difformis [29] = experiment: Pre-emergence herbicidal activity against Cyperus difformis assessed as bleaching of stem/leaf parts; format: functional, organism-based
Echinochloa oryzicola [30] = experiment: Pre-emergence herbicidal activity against Echinochloa oryzicola assessed as bleaching of stem/leaf parts; format: functional, organism-based
Ammannia multiflora [31] = experiment: Post-emergence herbicidal activity against Ammannia multiflora assessed as bleaching of stem/leaf parts; format: functional, organism-based; also: test concentration or dose not given here
Elatine triandra [32] = experiment: Post-emergence herbicidal activity against Elatine triandra assessed as bleaching of stem/leaf parts; format: functional, organism-based; also: test concentration or dose not given here
Rotala indica [33] = experiment: Post-emergence herbicidal activity against Rotala indica assessed as bleaching of stem/leaf parts; format: functional, organism-based; also: test concentration or dose not given here
[34] = system: Schoenoplectiella juncoides; experiment: Post-emergence herbicidal activity against Schoenoplectiella juncoides assessed as bleaching of stem/leaf parts; format: functional, organism-based; also: test concentration or dose not given here
Lindernia procumbens [35] = experiment: Post-emergence herbicidal activity against Lindernia procumbens assessed as bleaching of stem/leaf parts; format: functional, organism-based; also: test concentration or dose not given here
Pontederia vaginalis [36] = experiment: Post-emergence herbicidal activity against Monochoria vaginalis assessed as bleaching of stem/leaf parts; format: functional, organism-based; also: test concentration or dose not given here
Cyperus difformis [37] = experiment: Post-emergence herbicidal activity against Cyperus difformis assessed as bleaching of stem/leaf parts; format: functional, organism-based; also: test concentration or dose not given here
Echinochloa oryzicola [38] = experiment: Post-emergence herbicidal activity against Echinochloa oryzicola assessed as bleaching of stem/leaf parts; format: functional, organism-based; also: test concentration or dose not given here

SMILES	Activity (Eleocharis acicularis [1])	Activity (Oryza sativa [2])	Activity [3]	Activity (Pontederia vaginalis [4])	Activity (Ammannia multiflora [5])	Activity (Rotala indica [6])	Activity (Elatine triandra [7])	Activity (Lindernia procumbens [8])	Activity (Cyperus difformis [9])	Activity (Echinochloa oryzicola [10])	Activity (Oryza sativa [11])	Activity (Eleocharis acicularis [12])	Activity (Pontederia vaginalis [13])	Activity [14]	Activity (Ammannia multiflora [15])	Activity (Elatine triandra [16])	Activity (Rotala indica [17])	Activity (Lindernia procumbens [18])	Activity (Echinochloa oryzicola [19])	Activity (Cyperus difformis [20])	other results
CCCONC(=O)c1cn(C)nc1OCc1cccc(C(F)(F)F)c1	Active	Non-toxic	Active	Active	Active	Active	Active	Active	Active	Active	Toxic	Active	Active	Active	Active	Active	Active	Active	Active	Active	Activity (Eleocharis acicularis [21]): Active; Activity (Eleocharis acicularis [22]): Active; Activity (Ammannia multiflora [23]): Active; Activity (Rotala indica [24]): Active; Activity (Elatine triandra [25]): Active; Activity (Lindernia procumbens [26]): Active; Activity [27]: Active; Activity (Pontederia vaginalis [28]): Active; Activity (Cyperus difformis [29]): Active; Activity (Echinochloa oryzicola [30]): Active; Activity (Ammannia multiflora [31]): Active; Activity (Elatine triandra [32]): Active; Activity (Rotala indica [33]): Active; Activity [34]: Active; Activity (Lindernia procumbens [35]): Active; Activity (Pontederia vaginalis [36]): Active; Activity (Cyperus difformis [37]): Active; Activity (Echinochloa oryzicola [38]): Active
Cn1cc(C(=O)NOc2ccc(F)cc2)c(OCc2cccc(C(F)(F)F)c2)n1	Active	Non-toxic	inactive	Active	Active	Active	Active	Active	inactive	inactive	Non-toxic	Active	Active	Active	Active	Active	Active	Active	Active	Active	Activity (Eleocharis acicularis [21]): Active; Activity (Eleocharis acicularis [22]): Active; Activity (Ammannia multiflora [23]): Active; Activity (Rotala indica [24]): Active; Activity (Elatine triandra [25]): Active; Activity (Lindernia procumbens [26]): Active; Activity [27]: Active; Activity (Pontederia vaginalis [28]): Active; Activity (Cyperus difformis [29]): Active; Activity (Echinochloa oryzicola [30]): Active; Activity (Ammannia multiflora [31]): Active; Activity (Elatine triandra [32]): Active; Activity (Rotala indica [33]): Active; Activity [34]: Active; Activity (Lindernia procumbens [35]): Active; Activity (Pontederia vaginalis [36]): Active; Activity (Cyperus difformis [37]): Active; Activity (Echinochloa oryzicola [38]): Active
Cn1cc(C(=O)NOc2ccccc2)c(OCc2cccc(C(F)(F)F)c2)n1	Active	Non-toxic	inactive	Active	Active	Active	Active	Active	Active	Active	Non-toxic	Active	Active	Active	Active	Active	Active	Active	Active	Active	Activity (Eleocharis acicularis [21]): Active; Activity (Eleocharis acicularis [22]): Active; Activity (Ammannia multiflora [23]): Active; Activity (Rotala indica [24]): Active; Activity (Elatine triandra [25]): Active; Activity (Lindernia procumbens [26]): Active; Activity [27]: Active; Activity (Pontederia vaginalis [28]): Active; Activity (Cyperus difformis [29]): Active; Activity (Echinochloa oryzicola [30]): Active; Activity (Ammannia multiflora [31]): Active; Activity (Elatine triandra [32]): Active; Activity (Rotala indica [33]): Active; Activity [34]: Active; Activity (Lindernia procumbens [35]): Active; Activity (Pontederia vaginalis [36]): Active; Activity (Cyperus difformis [37]): Active; Activity (Echinochloa oryzicola [38]): Active
Cn1cc(C(=O)NOc2ccc(F)cc2F)c(OCc2cccc(C(F)(F)F)c2)n1	Active	Non-toxic	inactive	Active	Active	Active	Active	Active	Active	inactive	Non-toxic	Active	Active	Active	Active	Active	Active	Active	Active	Active	Activity (Eleocharis acicularis [21]): Active; Activity (Eleocharis acicularis [22]): Active; Activity (Ammannia multiflora [23]): Active; Activity (Rotala indica [24]): Active; Activity (Elatine triandra [25]): Active; Activity (Lindernia procumbens [26]): Active; Activity [27]: Active; Activity (Pontederia vaginalis [28]): Active; Activity (Cyperus difformis [29]): Active; Activity (Echinochloa oryzicola [30]): Active; Activity (Ammannia multiflora [31]): Active; Activity (Elatine triandra [32]): Active; Activity (Rotala indica [33]): Active; Activity [34]: Active; Activity (Lindernia procumbens [35]): Active; Activity (Pontederia vaginalis [36]): Active; Activity (Cyperus difformis [37]): Active; Activity (Echinochloa oryzicola [38]): Active
